Where “and” joins values, the source holds several entries; their conditions need not be identical. Equal entries are not always repeated. Toxic doses and inconclusive results are not listed.
Test system: BDF1 mice, B16 melanoma ip, median survival T/C
Experiment: NCI In Vivo Anticancer Drug Screen. Data for tumor model B16 Melanoma (intraperitoneal) in B6D2F1 (BDF1) mice
Settings: endpoint: median survival time, higher = longer survival
How it was run: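 The ratio T/C compares compound-treated mice with vehicle-treated controls, using survival or tumor size as the endpoint in a transplantable tumor model.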

[1] = dose: 200.0 mg/kg/injection, schedule: Q01DX009 (ip), vehicle: Klucel (hydroxypropylcellulose) (HPC)
[2] = dose: 400.0 mg/kg/injection, schedule: Q01DX009 (ip), vehicle: Klucel (hydroxypropylcellulose) (HPC)
[3] = dose: 50.0 mg/kg/injection, schedule: Q01DX009 (ip), vehicle: saline with Tween-80
[4] = dose: 100.0 mg/kg/injection, schedule: Q01DX009 (ip), vehicle: saline with Tween-80
[5] = dose: 50.0 mg/kg/injection, schedule: Q01DX009 (ip), vehicle: Klucel (hydroxypropylcellulose) (HPC)
[6] = dose: 100.0 mg/kg/injection, schedule: Q01DX009 (ip), vehicle: Klucel (hydroxypropylcellulose) (HPC)
[7] = dose: 12.5 mg/kg/injection, schedule: Q01DX009 (ip), vehicle: saline
[8] = dose: 25.0 mg/kg/injection, schedule: Q01DX009 (ip), vehicle: saline
[9] = dose: 6.25 mg/kg/injection, schedule: Q01DX009 (ip), vehicle: saline
[10] = dose: 12.5 mg/kg/injection, schedule: Q01DX009 (ip), vehicle: saline with Tween-80
[11] = dose: 25.0 mg/kg/injection, schedule: Q01DX009 (ip), vehicle: saline with Tween-80
[12] = dose: 6.25 mg/kg/injection, schedule: Q01DX009 (ip), vehicle: saline with Tween-80
[13] = dose: 200.0 mg/kg/injection, schedule: Q01DX009 (ip), vehicle: saline with Tween-80

`COc1ccccc1N1CCN(CCc2c[nH]c3cc4c(cc23)OCO4)CC1` was tested, and the T/C (dose: 1.56 mg/kg/injection, schedule: Q01DX009 (ip), vehicle: Klucel (hydroxypropylcellulose) (HPC)) was 89 % of control and the T/C (dose: 6.25 mg/kg/injection, schedule: Q01DX009 (ip), vehicle: Klucel (hydroxypropylcellulose) (HPC)) was 89 % of control.
`O=C(O)CCC1CCCCC1=O` (stereo not drawn) was tested, and the T/C [1] was 120 % of control and the T/C [2] was 100 % of control.
`CC(C)[NH-].CC(C)[NH-].O.O.[Cl][Pt+2][Cl]` was tested, and the T/C (dose: 3.12 mg/kg/injection, schedule: Q01DX009 (ip), vehicle: dextrose) was 118 % of control, the T/C (dose: 3.13 mg/kg/injection, schedule: Q01DX009 (ip), vehicle: dextrose) was 122 % of control and the T/C (dose: 12.5 mg/kg/injection, schedule: Q01DX009 (ip), vehicle: dextrose) was 164 % of control and 168 % of control.
`C=CC(=O)N1CN(C(=O)C=C)CN(C(=O)C=C)C1` was tested, and the T/C (dose: 0.78 mg/kg/injection, schedule: Q01DX009 (ip), vehicle: saline with Tween-80) was 110 % of control, the T/C (dose: 1.56 mg/kg/injection, schedule: Q01DX009 (ip), vehicle: saline with Tween-80) was 114 % of control and the T/C (dose: 3.12 mg/kg/injection, schedule: Q01DX009 (ip), vehicle: saline with Tween-80) was 116 % of control.
`CCC(=O)/C=C/C1C(C)=CCCC1(C)C` (stereo not drawn) was tested, and the T/C [3] was 104 % of control and the T/C [4] was 102 % of control.
For `CC1CCC2(C)CCC3(C)C(=CCC4C5(C)CCC(O)C(C)(C)C5CCC43C)C2C1C` (stereo not drawn), the T/C [5] was 99 % of control, the T/C [6] was 97 % of control and the T/C [1] was 90 % of control.
In the case of `Cc1n(CC(C)C)c2c([n+]1C)C(=O)c1ccccc1C2=O`, the T/C (dose: 1.0 mg/kg/injection, schedule: Q01DX009 (ip), vehicle: saline) is reported as 90 % of control and the T/C (dose: 2.0 mg/kg/injection, schedule: Q01DX009 (ip), vehicle: saline) is reported as 87 % of control.
With `CC(C)OCCCN=C(N)N` the T/C [7] was 105 % of control, the T/C [8] was 106 % of control and the T/C (dose: 50.0 mg/kg/injection, schedule: Q01DX009 (ip), vehicle: saline) was 110 % of control.
With `COc1cc([N+](=O)[O-])c2ncccc2c1` the T/C [6] was 115 % of control and the T/C [1] was 110 % of control.
In the case of `O=P(N1CCOCC1)(N1CC1)N1CC1`, the T/C [9] is reported as 115 % of control and the T/C [7] is reported as 118 % of control.
For `c1ccc(CCN2CCC(CCc3c[nH]c4ccccc34)CC2)cc1`, the T/C [10] was 90 % of control, the T/C [11] was 103 % of control and the T/C [3] was 94 % of control.
For `O=[N+]([O-])c1ccc(CSc2ncnc3c2ncn3C2OC(CO)C(O)C2O)cc1` (stereo not drawn), the T/C (dose: 3.13 mg/kg/injection, schedule: Q01DX009 (ip), vehicle: saline with Tween-80) was 90 % of control, the T/C [12] was 90 % of control and the T/C [10] was 90 % of control. For the same molecule, the T/C [11] was 86 % of control, the T/C [3] was 86 % of control and the T/C [4] was 79 % of control. For the same molecule, the T/C [13] was 75 % of control.
With `C=CC(=O)NCNC(=O)CCBr` the T/C (dose: 25.0 mg/kg/injection, schedule: Q01DX009 (ip), vehicle: Klucel (hydroxypropylcellulose) (HPC)) was 115 % of control, the T/C [5] was 121 % of control and the T/C [6] was 123 % of control.
With `CC1(C)CC[C@H](C2=CC(=O)c3c(O)ccc(O)c3C2=O)O1` the T/C (dose: 1.25 mg/kg/injection, schedule: Q01DX009 (ip), vehicle: Klucel (hydroxypropylcellulose) (HPC)) was 99 % of control, the T/C (dose: 2.5 mg/kg/injection, schedule: Q01DX009 (ip), vehicle: Klucel (hydroxypropylcellulose) (HPC)) was 97 % of control and the T/C (dose: 5.0 mg/kg/injection, schedule: Q01DX009 (ip), vehicle: Klucel (hydroxypropylcellulose) (HPC)) was 97 % of control. For the same molecule, the T/C (dose: 10.0 mg/kg/injection, schedule: Q01DX009 (ip), vehicle: Klucel (hydroxypropylcellulose) (HPC)) was 92 % of control and the T/C (dose: 20.0 mg/kg/injection, schedule: Q01DX009 (ip), vehicle: Klucel (hydroxypropylcellulose) (HPC)) was 93 % of control.
With `O=[N+]([O-])c1ccc(O)c(N=Cc2ccc(C=Nc3cc([N+](=O)[O-])ccc3O)cc2)c1` the T/C (dose: 75.0 mg/kg/injection, schedule: Q01DX009 (ip), vehicle: Klucel (hydroxypropylcellulose) (HPC)) was 89 % of control and the T/C (dose: 150.0 mg/kg/injection, schedule: Q01DX009 (ip), vehicle: Klucel (hydroxypropylcellulose) (HPC)) was 93 % of control.
`O=C1C(N2CCOCC2)=C(N2CC2)C(=O)C(N2CCOCC2)=C1N1CC1` was tested, and the T/C (dose: 0.75 mg/kg/injection, schedule: Q01DX009 (ip), vehicle: saline) was 118 % of control, the T/C (dose: 1.5 mg/kg/injection, schedule: Q01DX009 (ip), vehicle: saline) was 124 % of control and the T/C (dose: 3.0 mg/kg/injection, schedule: Q01DX009 (ip), vehicle: saline) was 120 % of control. For the same molecule, the T/C (dose: 6.0 mg/kg/injection, schedule: Q01DX009 (ip), vehicle: saline) was 106 % of control.
In the case of `O=C1NC(=O)C2(CCc3ccc(N(CCCl)CCCl)cc32)N1` (stereo not drawn), the T/C (dose: 1.5 mg/kg/injection, schedule: Q01DX009 (ip), vehicle: saline with Tween-80) is reported as 120 % of control, the T/C (dose: 3.0 mg/kg/injection, schedule: Q01DX009 (ip), vehicle: saline with Tween-80) is reported as 116 % of control and the T/C (dose: 12.0 mg/kg/injection, schedule: Q01DX009 (ip), vehicle: saline with Tween-80) is reported as 183 % of control. The T/C (dose: 12.5 mg/kg/injection, schedule: Q01DX004 (oral), vehicle: saline with Tween-80) was 102 % of control.
With `O=C(Nc1cccc(C(F)(F)F)c1)NC1CCCCC1` the T/C (dose: 100.0 mg/kg/injection, schedule: Q04DX003 (ip), vehicle: gum acacia) was 87 % of control, the T/C (dose: 200.0 mg/kg/injection, schedule: Q04DX003 (ip), vehicle: gum acacia) was 89 % of control and the T/C (dose: 400.0 mg/kg/injection, schedule: Q04DX003 (ip), vehicle: gum acacia) was 87 % of control.
`O=C(/C=C/c1ccc2c(c1)OCO2)c1ccc2c(c1)OCO2` was tested, and the T/C [6] was 100 % of control, the T/C [1] was 110 % of control and the T/C [2] was 117 % of control.
In the case of `CCCCS(=O)CC(CO)NC(=O)/C=C/c1c(C)[nH]c(=O)[nH]c1=O` (stereo not drawn), the T/C (dose: 0.63 mg/kg/injection, schedule: Q01DX009 (ip), vehicle: water) is reported as 104 % of control, the T/C (dose: 1.25 mg/kg/injection, schedule: Q01DX009 (ip), vehicle: water) is reported as 102 % of control and the T/C (dose: 2.5 mg/kg/injection, schedule: Q01DX009 (ip), vehicle: water) is reported as 104 % of control. For the same molecule, the T/C (dose: 5.0 mg/kg/injection, schedule: Q01DX009 (ip), vehicle: water) was 99 % of control and the T/C (dose: 10.0 mg/kg/injection, schedule: Q01DX009 (ip), vehicle: water) was 95 % of control.
With `C[n+]1ccccc1/C=N/O` the T/C (dose: 18.75 mg/kg/injection, schedule: Q01DX009 (ip), vehicle: saline) was 100 % of control, the T/C (dose: 37.5 mg/kg/injection, schedule: Q01DX009 (ip), vehicle: saline) was 107 % of control and the T/C (dose: 75.0 mg/kg/injection, schedule: Q01DX009 (ip), vehicle: saline) was 88 % of control and 106 % of control.
For `[Cl][Hg][c]1ccc2ccccc2c1`, the T/C (dose: 1.5 mg/kg/injection, schedule: Q01DX009 (ip), vehicle: gum acacia) was 108 % of control, the T/C (dose: 3.0 mg/kg/injection, schedule: Q01DX009 (ip), vehicle: gum acacia) was 95 % of control and the T/C (dose: 6.0 mg/kg/injection, schedule: Q01DX009 (ip), vehicle: gum acacia) was 95 % of control. The T/C (dose: 12.5 mg/kg/injection, schedule: Q01DX009 (ip), vehicle: gum acacia) was 96 % of control.
For `CC(C)(C)CC(C)(C)CC(C)(C)NCCCN`, the T/C [12] was 105 % of control, the T/C [10] was 91 % of control and the T/C [11] was 86 % of control.
For `CCCCOB(/C=C/Sc1ccccc1)OCCCC`, the T/C [9] was 101 % of control, the T/C [7] was 119 % of control and the T/C [8] was 100 % of control. For the same molecule, the T/C (dose: 35.0 mg/kg/injection, schedule: Q01DX009 (ip), vehicle: saline) was 117 % of control, the T/C [5] was 102 % of control and the T/C (dose: 300.0 mg/kg/injection, schedule: Q01DX009 (ip), vehicle: Klucel (hydroxypropylcellulose) (HPC)) was 101 % of control.
With `N#CCN1CCCCC1` the T/C (dose: 0.39 mg/kg/injection, schedule: Q01DX009 (ip), vehicle: saline) was 96 % of control, the T/C (dose: 0.78 mg/kg/injection, schedule: Q01DX009 (ip), vehicle: saline) was 100 % of control and the T/C (dose: 1.56 mg/kg/injection, schedule: Q01DX009 (ip), vehicle: saline) was 102 % of control.
`CCN1/C(=C/C=C/C=C\C=C\c2sc3ccc4ccccc4c3[n+]2CC)Sc2ccc3ccccc3c21` was tested, and the T/C (dose: 2.5 mg/kg/injection, schedule: Q01DX009 (ip), vehicle: saline with Tween-80) was 87 % of control, the T/C (dose: 10.0 mg/kg/injection, schedule: Q01DX009 (ip), vehicle: saline with Tween-80) was 115 % of control and the T/C (dose: 20.0 mg/kg/injection, schedule: Q01DX009 (ip), vehicle: saline with Tween-80) was 96 % of control.
`c1cncc(C2OCCO2)c1` was tested, and the T/C [4] was 98 % of control, the T/C [13] was 89 % of control and the T/C (dose: 400.0 mg/kg/injection, schedule: Q01DX009 (ip), vehicle: saline with Tween-80) was 89 % of control.

— PubChem BioAssay AID192 (DTP/NCI, 2004)
